# Laboratory results published in PubChem BioAssay (NCI).
# Where “and” joins values, the source holds several entries; their conditions need not be identical. Identical values can stand only once.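 A five-concentration, 48-hour dose response in 96-well plates underlies each endpoint, interpolated linearly between surrounding concentrations. Here, GI50 denotes the concentration required for 50% inhibition of growth. The concentration for full growth arrest is given as TGI.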
# Key:
# Assay in all cases: NCI-60 cell line screen, 48 h
# CCRF-CEM leukemia = tested on: CCRF-CEM leukemia
# IGROV1 ovarian = tested on: IGROV1 ovarian
# NCI-H226 lung = tested on: NCI-H226 lung
# NCI-H522 lung = tested on: NCI-H522 lung
# OVCAR-3 ovarian = tested on: OVCAR-3 ovarian
# OVCAR-8 ovarian = tested on: OVCAR-8 ovarian
# SN12C renal = tested on: SN12C renal
# SNB-19 CNS = tested on: SNB-19 CNS
# SW-620 colon = tested on: SW-620 colon
# TK-10 renal = tested on: TK-10 renal
Compound,TGI (CCRF-CEM leukemia),TGI (IGROV1 ovarian),TGI (NCI-H226 lung),TGI (NCI-H522 lung),TGI (OVCAR-3 ovarian),TGI (OVCAR-8 ovarian) [µM],TGI (SN12C renal),TGI (SNB-19 CNS),TGI (SW-620 colon),TGI (TK-10 renal),GI50 (CCRF-CEM leukemia),GI50 (NCI-H226 lung),GI50 (NCI-H522 lung),GI50 (OVCAR-3 ovarian),GI50 (SN12C renal) [µM],GI50 (SNB-19 CNS) [µM],GI50 (SW-620 colon),GI50 (TK-10 renal) [µM],GI50 (IGROV1 ovarian),GI50 (OVCAR-8 ovarian) [µM]
O=C1OC(O)C(Oc2ccc(Cl)cc2)=C1Cl (configuration not stated),> 100 µM,> 100 µM,> 100 µM,> 100 µM,> 100 µM,> 100,> 100 µM,> 100 µM,> 100 µM,> 100 µM,,,,,,,,,,
CO[C@@H]1[C@H](OC(=O)NC(=O)CCl)CC[C@]2(CO2)[C@H]1[C@@]1(C)O[C@@H]1CC=C(C)C,18 µM and 28.4 µM,33 µM and 43.4 µM,50.4 µM and 50.3 µM,3.99 µM and 16.8 µM and 33.8 µM,21.3 µM and 30.7 µM,79.9,31.3 µM and 25.7 µM,45.4 µM and 69.1 µM,51.7 µM and 41.3 µM,41.3 µM and 41.7 µM,1.98 µM and 5.49 µM,23.7 µM,1.23 µM and 7.41 µM,8.68 µM,3.27,6.01,5.73 µM and 4.16 µM,14.1,,
C[C@@]12CCC(=O)C=C1CC[C@H]1C2=CC[C@]2(C)C1CC[C@@]2(C)O (some centres not stated),> 100 µM,> 100 µM,> 100 µM,> 100 µM,> 100 µM,> 100,> 100 µM,> 100 µM,> 100 µM,> 100 µM,,,,,,,,,,
C=C1C(=O)O[C@H]2[C@H]1CC/C(COC(=O)NCc1c[nH]c3ccc(Cl)cc13)=C\CC[C@@]1(C)O[C@@H]21,1.88 µM,2.94 µM,3.09 µM,2.05 µM,2.7 µM,3.36,3 µM,14.7 µM,2.2 µM,2.98 µM,0.341 µM,1.61 µM,0.527 µM,1.11 µM,1.37,3.72,0.657 µM,1.61,1.41 µM,1.38
COC(=O)[C@]1(C)CCC[C@@]2(C)C1CCC1=CC3(C(C)C)CCC12OO3 (some centres not stated),> 100 µM,> 100 µM,> 100 µM,> 100 µM,> 100 µM,> 100,> 100 µM,> 100 µM,> 100 µM,> 100 µM,,,,,,,,,,
COc1ccc([N+](=O)[O-])c(S(=O)(=O)c2ccc(Cl)cc2)n1,13.8 µM,31.3 µM,36 µM,3.77 µM,5.31 µM,15.9,16.8 µM,29.2 µM,4.65 µM,11.7 µM,2.93 µM,10.2 µM,1.86 µM,2.34 µM,3.82,13,2.06 µM,3.57,12.2 µM,3.67
C[C@H]1[C@H](C)CC[C@]2(C(=O)O)CC[C@]3(C)C(=CC[C@@H]4[C@@]5(C)C/C(=C/c6ccco6)C(=O)C(C)(C)[C@@H]5CC[C@]43C)[C@H]12,16.8 µM,21.7 µM,23.2 µM,23.6 µM,11.9 µM,24.1,18.9 µM,23.2 µM,19.5 µM,26.3 µM,3.52 µM,4.36 µM,6.35 µM,3.44 µM,3.7,5.07,4.19 µM,7.9,5.19 µM,4.63
COC(=O)C1=C(C(=O)OC)C23C=C(C)C1C2=C(C)C1(CC1)[C@@](C)(O)C3=O (some centres not stated),> 100 µM,,3.07 µM,5.75 µM,2.12 µM,> 24.6,13.3 µM,13.5 µM,30.2 µM,11.3 µM,4.8 µM,0.438 µM,0.495 µM,0.336 µM,0.435,0.359,9.14 µM,1.35,0.275 µM,0.359
Cn1cc(C2=C(c3cn(CCN)c4ccccc34)C(=O)NC2=O)c2ccccc21,> 22.7 µM,> 21 µM,18.1 µM,17.2 µM,> 23.9 µM,> 22.3,> 25 µM,> 25 µM,> 20.1 µM,18.8 µM,6.05 µM,4.44 µM,6.01 µM,7.47 µM,5.87,8.13,6.25 µM,6.3,9.3 µM,6.3
O=C(COc1ccccc1)NS(=O)(=O)c1ccccc1,> 100 µM,> 100 µM,> 100 µM,> 100 µM,> 100 µM,> 100,> 100 µM,> 100 µM,> 100 µM,> 100 µM,,,,,,,,,,
NC1=N/C(=C2/CCNC(=O)c3[nH]c(Br)cc32)C(=O)N1,> 100 µM,> 100 µM,> 100 µM,32.5 µM and 17.4 µM,43 µM and 40.1 µM,> 100,> 100 µM,> 100 µM,> 100 µM,> 54.9 µM,,> 64 µM and 21.8 µM,7.44 µM and 2.54 µM,4.29 µM and 10.7 µM,,,2.71 µM and 6.12 µM,,30.4 µM and 97 µM,
COC1=CC(c2ccc[nH]2)=N/C1=C\c1ccc[nH]1,14 µM,4.7 µM,12.4 µM,2.68 µM,3.8 µM,20.5,19.7 µM,18.4 µM,13.8 µM,7.79 µM,0.0231 µM,0.363 µM,0.284 µM,0.0964 µM,0.433,3.17,0.0393 µM,0.232,0.172 µM,0.232
COc1cc(-c2cc(-c3nc4ccc(Cl)cc4[nH]3)[nH]n2)cc(OC)c1OC,7.56 µM,16.3 µM,7.23 µM,5.73 µM,12.1 µM,5.59,15.6 µM,20.4 µM,18.6 µM,15.8 µM,2.48 µM,1.88 µM,1.9 µM,3.5 µM,3.06,7.25,4.99 µM,3.52,3.42 µM,2.26
NCc1nnn(Cc2ccccc2)c1N,> 100 µM,> 100 µM,> 100 µM,> 100 µM,> 100 µM,> 100,> 100 µM,> 100 µM,> 100 µM,> 100 µM,,,,,,,,,,
CC(C)(C)C(=O)C1CC(=O)c2ccccc2C1=O (configuration not stated),> 100 µM,> 100 µM,> 100 µM,65.8 µM,71.4 µM,> 100,> 100 µM,> 100 µM,> 100 µM,> 100 µM,,,,,,,,,,
C1=Cc2nc1c(-c1ccncc1)c1ccc([n-]1)c(-c1ccncc1)c1nc(c(-c3ccncc3)c3ccc([n-]3)c2-c2ccncc2)C=C1.[Zn+2],> 100 µM,> 100 µM,> 100 µM,> 100 µM,> 100 µM,> 100,> 100 µM,> 100 µM,> 100 µM,> 100 µM,,,,,,,,,,
COC(=O)C(Cl)=C1CC1,42.2 µM,> 100 µM,> 100 µM,33.9 µM,65 µM,97.9,> 100 µM,> 100 µM,37.1 µM,> 100 µM,,,,,,,,,,
CN(C)CCCc1c[nH]c2ccccc12,> 100 µM,> 100 µM,> 100 µM,> 100 µM,> 100 µM,> 100,> 100 µM,> 100 µM,> 100 µM,> 100 µM,,,,,,,,,,
CN(C)CC1(C)CC/C(=C\c2ccccc2)C1=O (configuration not stated),> 100 µM,> 100 µM,> 100 µM,> 100 µM,> 100 µM,> 100,> 100 µM,> 100 µM,> 100 µM,> 100 µM,,,,,,,,,,
Cc1ccc(S(=O)(=O)N2CCc3ccc(O)c4c3C2Cc2cc(Cl)ccc2-4)cc1 (configuration not stated),14.1 µM,5.86 µM,8.4 µM,2.29 µM,1.63 µM,5.83,7.42 µM,14.8 µM,9.35 µM,13.1 µM,0.922 µM,2.63 µM,0.827 µM,0.733 µM,1.78,1.48,1.2 µM,2.18,1.35 µM,1.21
CCC(C)C(NC(=O)C1CCCN1C(=O)C(NC(=O)C(C)N)C(C)C)C(N)=O (configuration not stated),> 100 µM,> 100 µM,> 100 µM,> 100 µM,> 100 µM,> 100,> 100 µM,> 100 µM,> 100 µM,> 100 µM,> 100 µM,> 100 µM,> 100 µM,> 100 µM,> 100,> 100,> 100 µM,> 100,> 100 µM,> 100
O=C(Nc1c(O)[nH]c(=S)[nH]c1=O)c1ccc2ccccc2n1,> 100 µM,> 100 µM,> 100 µM,> 100 µM,> 100 µM,> 100,> 100 µM,> 100 µM,> 100 µM,> 100 µM,,,,,,,,,,
COc1ccc(-c2nc(-c3nc4ccc(OC)cc4[nH]3)cc3c2[nH]c2ccccc23)cc1,> 100 µM,> 100 µM,> 100 µM,> 100 µM,> 100 µM,> 100,> 100 µM,> 100 µM,> 100 µM,> 100 µM,0.887 µM,4.37 µM,2.7 µM,3.51 µM,3.49,3.37,4.83 µM,3.14,2.83 µM,1.04
COc1ccc(NC(=O)c2sc3nc(C)c(C(O)c4ccccc4)cc3c2N)cc1 (configuration not stated),> 100 µM,> 100 µM,> 100 µM,20.4 µM,13.8 µM,> 100,> 100 µM,> 100 µM,28.1 µM,> 100 µM,2.54 µM,4.87 µM,2.21 µM,2.48 µM,3.36,5.24,2.64 µM,5.39,3.63 µM,4.01
Nc1ncnc2c1ncn2C1OC(CO)=CC1O (configuration not stated),> 37.5 µM,> 37.5 µM,> 37.5 µM,> 37.5 µM,> 37.5 µM,> 37.5,> 37.5 µM,> 37.5 µM,> 37.5 µM,> 37.5 µM,,,,,,,,,,
O=C(O)CC/C(=N\Nc1nsc2ccccc12)c1ccc(Cl)cc1,> 54.6 µM,> 100 µM,> 100 µM,> 100 µM,47.2 µM,> 100,57.7 µM,> 100 µM,> 87.8 µM,> 67.6 µM,,,,,,,,,,
Cc1ccc(C)c(-c2csc(Nc3ccc(C)c(C)c3)n2)c1,> 100 µM,> 100 µM,> 100 µM,> 100 µM,> 100 µM,> 100,> 100 µM,> 100 µM,> 100 µM,> 100 µM,> 100 µM,> 100 µM,67.1 µM,66.3 µM,> 100,77,> 100 µM,> 100,62.8 µM,74.7
Cc1cc(Cl)cc2c1NC(=O)C2(O)C(C)C(=O)c1ccc(Cl)cc1 (configuration not stated),> 89.4 µM,> 100 µM,> 100 µM,> 100 µM,> 100 µM,> 100,> 100 µM,> 100 µM,> 100 µM,> 100 µM,,,,,,,,,,
CCOC(=O)c1cn(Cc2ccccc2)c(=O)n1Cc1ccccc1,> 100 µM,> 100 µM,> 100 µM,> 100 µM,> 100 µM,> 100,> 100 µM,> 100 µM,> 100 µM,> 100 µM,,,,,,,,,,
COc1ccc2c(c1)CCC1C2CC[C@]2(C)/C(=N/OC(=O)Cc3ccccc3)CCC12 (some centres not stated),49.9 µM,29.8 µM,36.5 µM,32.8 µM,31 µM,57.1,43.6 µM,36.7 µM,> 100 µM,97.1 µM,13.6 µM,18.8 µM,12.2 µM,15.8 µM,20.6,18,35.5 µM,37.7,14.7 µM,23.2
